Source: PubChem BioAssay (NCI)
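Following 48 hours of exposure in 96-well plates, responses at five concentrations were used to interpolate endpoints linearly. Abbreviation: GI50, concentration required for 50% inhibition of growth. Definition used: TGI = concentration required for complete inhibition of growth.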

Experiments:
Test in all cases: growth of human tumour cells (NCI), 48 h
EKVX NSCLC = system: EKVX NSCLC
UACC-62 melanoma = system: UACC-62 melanoma
MDA-MB-435 = system: MDA-MB-435
UACC-257 melanoma = system: UACC-257 melanoma
NCI-H226 lung = system: NCI-H226 lung
CAKI-1 renal = system: CAKI-1 renal
KM12 colon = system: KM12 colon
SNB-75 CNS = system: SNB-75 CNS
ACHN renal = system: ACHN renal
HCC-2998 colon = system: HCC-2998 colon
SK-OV-3 ovarian = system: SK-OV-3 ovarian
OVCAR-3 ovarian = system: OVCAR-3 ovarian
OVCAR-8 ovarian = system: OVCAR-8 ovarian
K-562 leukemia = system: K-562 leukemia
SR leukemia = system: SR leukemia
COLO 205 colon = system: COLO 205 colon
SK-MEL-28 melanoma = system: SK-MEL-28 melanoma
A549 NSCLC = system: A549 NSCLC
HS 578T breast = system: HS 578T breast
SF-295 CNS = system: SF-295 CNS
IGROV1 ovarian = system: IGROV1 ovarian
OVCAR-5 ovarian = system: OVCAR-5 ovarian
NCI-H23 lung = system: NCI-H23 lung
MDA-MB-468 breast = system: MDA-MB-468 breast
MCF7 breast = system: MCF7 breast
NCI/ADR-RES ovarian = system: NCI/ADR-RES ovarian
NCI-H522 lung = system: NCI-H522 lung
SN12C renal = system: SN12C renal

Q: `COc1ccc(C(=O)Nc2sc3c(c2C#N)CCC(=O)C3)cc1C(F)(F)F` was tested. Which GI50 (EKVX NSCLC) did it give?
A: 2350 nM

Q: And the TGI (EKVX NSCLC)?
A: 8.76 µM

Q: What about the GI50 (UACC-62 melanoma) of the same compound?
A: 826 nM

Q: What about the TGI (UACC-62 melanoma) of the same compound?
A: 2210 nM

Q: What about the GI50 (MDA-MB-435) of the same compound?
A: 594 nM

Q: And the TGI (MDA-MB-435)?
A: 2060 nM

Q: What about the GI50 (UACC-257 melanoma) of the same compound?
A: 1600 nM

Q: And the TGI (UACC-257 melanoma)?
A: 3.92 µM

Q: And the GI50 (NCI-H226 lung)?
A: 2310 nM

Q: And the TGI (NCI-H226 lung)?
A: 7.09 µM

Q: And the GI50 (CAKI-1 renal)?
A: 491 nM

Q: And the TGI (CAKI-1 renal)?
A: 1840 nM

Q: What about the GI50 (KM12 colon) of the same compound?
A: 584 nM

Q: And the TGI (KM12 colon)?
A: 2210 nM

Q: And the GI50 (SNB-75 CNS)?
A: 1220 nM

Q: And the TGI (SNB-75 CNS)?
A: 3.68 µM

Q: What about the GI50 (ACHN renal) of the same compound?
A: 375 nM

Q: What about the TGI (ACHN renal) of the same compound?
A: 1260 nM

Q: And the GI50 (HCC-2998 colon)?
A: 1450 nM

Q: And the TGI (HCC-2998 colon)?
A: 3.2 µM

Q: What about the GI50 (SK-OV-3 ovarian) of the same compound?
A: 2480 nM

Q: What about the TGI (SK-OV-3 ovarian) of the same compound?
A: 6.71 µM

Q: And the GI50 (OVCAR-3 ovarian)?
A: 845 nM

Q: And the TGI (OVCAR-3 ovarian)?
A: 2440 nM

Q: What about the GI50 (OVCAR-8 ovarian) of the same compound?
A: 1280 nM

Q: What about the TGI (OVCAR-8 ovarian) of the same compound?
A: 3.71 µM

Q: And the GI50 (K-562 leukemia)?
A: 294 nM

Q: What about the TGI (K-562 leukemia) of the same compound?
A: > 100 µM

Q: And the GI50 (SR leukemia)?
A: 339 nM

Q: What about the TGI (SR leukemia) of the same compound?
A: > 100 µM

Q: And the GI50 (COLO 205 colon)?
A: 582 nM

Q: And the TGI (COLO 205 colon)?
A: 1620 nM

Q: And the GI50 (SK-MEL-28 melanoma)?
A: 882 nM

Q: What about the TGI (SK-MEL-28 melanoma) of the same compound?
A: 2330 nM

Q: What about the GI50 (A549 NSCLC) of the same compound?
A: 2780 nM

Q: What about the TGI (A549 NSCLC) of the same compound?
A: > 100 µM

Q: And the GI50 (HS 578T breast)?
A: 862 nM

Q: And the TGI (HS 578T breast)?
A: 3.68 µM

Q: And the GI50 (SF-295 CNS)?
A: 1790 nM

Q: What about the TGI (SF-295 CNS) of the same compound?
A: 4.78 µM

Q: And the GI50 (IGROV1 ovarian)?
A: 1290 nM

Q: What about the TGI (IGROV1 ovarian) of the same compound?
A: 2970 nM

Q: And the GI50 (OVCAR-5 ovarian)?
A: 1960 nM

Q: What about the TGI (OVCAR-5 ovarian) of the same compound?
A: 4.84 µM

Q: And the GI50 (NCI-H23 lung)?
A: 537 nM

Q: And the TGI (NCI-H23 lung)?
A: 2710 nM

Q: And the GI50 (MDA-MB-468 breast)?
A: 495 nM

Q: And the TGI (MDA-MB-468 breast)?
A: 1480 nM

Q: What about the GI50 (MCF7 breast) of the same compound?
A: 408 nM

Q: And the TGI (MCF7 breast)?
A: 3.15 µM

Q: What about the GI50 (NCI/ADR-RES ovarian) of the same compound?
A: 1300 nM

Q: What about the TGI (NCI/ADR-RES ovarian) of the same compound?
A: 3.64 µM

Q: And the GI50 (NCI-H522 lung)?
A: 225 nM

Q: What about the TGI (NCI-H522 lung) of the same compound?
A: 753 nM

Q: And the GI50 (SN12C renal)?
A: 966 nM

Q: What about the TGI (SN12C renal) of the same compound?
A: 6.19 µM
